One may read the Kd as the constant that tells how readily two partners part at equilibrium.

Data on two compounds can be found in publication PMC4643811, “Structural basis of Lewis^b antigen binding by the Helicobacter pylori adhesin BabA” (Science Advances, 2015).

Assay [1] has as its target T1, BabA (extracellular domain, H. pylori J99) (Helicobacter pylori, UniProt Q9ZKV2).
T1 construct: N-terminal extracellular domain, amino acids 10-527 of mature BabA; three C-terminal tags (6xLys-c-Myc-6xHis) kept; periplasmic expression in E. coli XL10 Gold; beta-barrel membrane domain absent
Description: isothermal titration calorimetry. The assay is classed as binding.

Assay [2] deals with BabA (extracellular domain, H. pylori J99) (Helicobacter pylori, UniProt Q9ZKV2, N226A). To be noted: pH 7.4, 25°C; protein 0.25 mM, glycan 10 mM.
BabA (extracellular domain, H. pylori J99) (Helicobacter pylori, UniProt Q9ZKV2, N226A), sequence (Q9ZKV2 30-547 N226A): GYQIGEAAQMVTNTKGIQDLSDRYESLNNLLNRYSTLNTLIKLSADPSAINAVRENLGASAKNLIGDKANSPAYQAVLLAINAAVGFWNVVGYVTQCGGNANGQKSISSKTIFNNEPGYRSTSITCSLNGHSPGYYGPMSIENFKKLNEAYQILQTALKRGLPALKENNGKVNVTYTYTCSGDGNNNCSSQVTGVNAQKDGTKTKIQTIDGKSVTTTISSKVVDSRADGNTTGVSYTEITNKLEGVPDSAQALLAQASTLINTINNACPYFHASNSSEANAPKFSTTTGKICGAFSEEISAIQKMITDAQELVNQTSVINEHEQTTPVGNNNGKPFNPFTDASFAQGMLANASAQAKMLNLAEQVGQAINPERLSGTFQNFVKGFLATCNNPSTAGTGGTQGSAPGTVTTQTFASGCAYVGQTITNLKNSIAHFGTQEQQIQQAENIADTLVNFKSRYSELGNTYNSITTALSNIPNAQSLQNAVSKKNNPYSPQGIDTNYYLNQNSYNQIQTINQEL

Read-outs that look alike come from different tables or passages of the source.

T1 sequence (Q9ZKV2 entry or part of it): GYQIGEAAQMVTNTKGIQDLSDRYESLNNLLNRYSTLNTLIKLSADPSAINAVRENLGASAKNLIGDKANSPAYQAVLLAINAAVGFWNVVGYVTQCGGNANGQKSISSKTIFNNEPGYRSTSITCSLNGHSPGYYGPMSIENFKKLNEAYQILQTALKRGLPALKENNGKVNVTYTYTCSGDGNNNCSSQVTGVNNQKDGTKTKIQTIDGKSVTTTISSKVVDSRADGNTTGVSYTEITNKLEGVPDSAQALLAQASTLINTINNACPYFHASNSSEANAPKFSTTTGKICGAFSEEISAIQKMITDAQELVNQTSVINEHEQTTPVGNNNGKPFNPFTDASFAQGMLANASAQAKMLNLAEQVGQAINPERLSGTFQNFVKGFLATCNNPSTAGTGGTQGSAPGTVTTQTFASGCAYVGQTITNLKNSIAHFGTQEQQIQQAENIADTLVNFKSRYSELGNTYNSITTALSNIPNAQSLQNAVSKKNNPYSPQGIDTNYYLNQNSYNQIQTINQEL

`CC(=O)N[C@H]1[C@H](O[C@H]2[C@@H](O)[C@@H](CO)O[C@@H](O[C@H]3[C@H](O)[C@@H](O)C(O)O[C@@H]3CO)[C@@H]2O)O[C@H](CO)[C@@H](O[C@@H]2O[C@@H](C)[C@@H](O)[C@@H](O)[C@@H]2O)[C@@H]1O[C@@H]1O[C@H](CO)[C@H](O)[C@H](O)[C@H]1O[C@@H]1O[C@@H](C)[C@@H](O)[C@@H](O)[C@@H]1O` (stereo partly drawn) [Le^b]: the Kd in assay [1] (pH 7.4, 20 mM tris-Cl, 300 mM NaCl, 25°C, single site) was around 252 µM; in assay [2], around 582 µM.
In the case of H-1 antigen, the dissociation constant Kd in assay [1] (pH 7.4, 25°C, protein 0.25 mM, glycan 10 mM, read-out: KD) is around 617 µM.
